Experimental findings from ChEMBL document CHEMBL6120971 (J Med Chem, 2024) are described below.

For series [1], the system named is MKN-45. The series is described as follows: Antiproliferative activity against human MKN-45 cells incubated for 72 hrs by CCK8 assay. The settings on record: MKN-45, 72 h. In kind it is functional, cell-based.
The target of series [2] is T1, Protein cereblon/Hepatocyte growth factor receptor (Homo sapiens, UniProt P08581+Q96SW2). Description: PROTAC activity at CRBN/c-MET in human MKN-45 cells assessed as induction of c-MET degradation at 3.125 to 50 nM by Western blot analysis. In kind it is cell-based. The settings on record: dose 3.125-50 nM.
Series [3] concerns MKN-45. Description: Induction of c-MET degradation in human MKN-45 cells assessed as residual activity at 100 nM incubated for 24 hrs by Western blot analysis (reference value: 100 %). It counts as cell-based. For orientation: In western blotting, separated proteins are transferred to a membrane and probed.
Series [4] in a line: Toxicity in BALB/c nude mouse xenografted with human MKN-45 cells assessed as body weight loss at 10 mg/kg, po administered once daily for 21 days. In kind it is organism-based. The note with it: in vivo, 504 h, time 21 day. (In general: In xenograft studies the graft and the host belong to different species.)
The nature of series [5]: Toxicity in BALB/c nude mouse xenografted with human MKN-45 cells assessed as effect on lung morphology at 10 mg/kg, po administered once daily for 21 days by H and E staining based analysis. In kind it is organism-based. The note with it: in vivo, 504 h, time 21 day.
Series [6] in a line: Toxicity in BALB/c nude mouse xenografted with human MKN-45 cells assessed as effect on liver morphology at 10 mg/kg, po administered once daily for 21 days by H and E staining based analysis. In kind it is organism-based. The settings on record: in vivo, 504 h, time 21 day.
Series [7] can be described thus: Toxicity in BALB/c nude mouse xenografted with human MKN-45 cells assessed as effect on spleen morphology at 10 mg/kg, po administered once daily for 21 days by H and E staining based analysis. In kind it is organism-based. The note with it: in vivo, 504 h, time 21 day.
A short description of series [8]: Toxicity in BALB/c nude mouse xenografted with human MKN-45 cells assessed as effect on kidney morphology at 10 mg/kg, po administered once daily for 21 days by H and E staining based analysis. The settings on record: in vivo, 504 h, time 21 day. In kind it is organism-based.
The nature of series [9]: Toxicity in BALB/c nude mouse xenografted with human MKN-45 cells assessed as effect on heart morphology at 10 mg/kg, po administered once daily for 21 days by H and E staining based analysis. The note with it: in vivo, 504 h, time 21 day. It counts as organism-based.
A short description of series [10]: AUC (0 to infinity) in po dosed rat. It counts as ADME, organism-based. The settings on record: in vivo.
The nature of series [11]: Cmax in po dosed rat. In kind it is ADME, organism-based. The note with it: in vivo.
Series [12] can be described thus: Half-life in Wistar rat at 20 mg/kg, po measured after 24 hrs by UPLC-MS/MS analysis. In kind it is ADME, organism-based. The settings on record: in vivo.
Series [13] can be described thus: Tmax in Wistar rat at 20 mg/kg, po measured after 24 hrs by UPLC-MS/MS analysis. In kind it is ADME, organism-based. The settings on record: in vivo.
Series [14] has as its target T2, von Hippel-Lindau disease tumor suppressor/Hepatocyte growth factor receptor (Homo sapiens, UniProt P08581+P40337). Description: PROTAC activity at VHL/c-MET in human MKN-45 cells assessed as induction of c-MET degradation by measuring residual activity at 100 nM incubated for 24 hrs by Western blot analysis (reference value: 100 %). In kind it is cell-based.
The subject of series [15] is MKN-45. The series is described as follows: Downregulation of KPNA2 protein level in human MKN-45 cells by MS-based quantitative proteomics analysis. It counts as functional, cell-based.
In series [16] the test system is MKN-45. The series is described as follows: Downregulation of SLC7A1 protein level in human MKN-45 cells by MS-based quantitative proteomics analysis. In kind it is functional, cell-based.
Series [17] deals with MKN-45. Description: Upregulation of PDCD4 protein level in human MKN-45 cells by MS-based quantitative proteomics analysis. In kind it is functional, cell-based.
Series [18] has as its target T2, von Hippel-Lindau disease tumor suppressor/Hepatocyte growth factor receptor. Description: PROTAC activity at VHL/c-MET in human MKN-45 cells assessed as induction of c-MET degradation at 6.25 to 100 nM incubated for 24 hrs by Western blot analysis. It counts as cell-based. The note with it: dose 6.25-100 nM.
Series [19] has as its target von Hippel-Lindau disease tumor suppressor/Importin subunit alpha-1 (Homo sapiens) (UniProt P52292+P40337). Description: PROTAC activity at VHL/KPNA2 in human MKN-45 cells assessed as induction of c-MET degradation at 6.25 to 100 nM incubated for 24 hrs by Western blot analysis. It counts as cell-based. The note with it: dose 6.25-100 nM.
The target of series [20] is T1, Protein cereblon/Hepatocyte growth factor receptor. The series is described as follows: PROTAC activity at CRBN/c-MET in human MKN-45 cells assessed as induction of c-MET degradation incubated for 72 hrs by Western blot analysis. In kind it is cell-based.
A further series has as its system HCC1954. Description: Antiproliferative activity against human HCC1954 cells incubated for 72 hrs by MTT assay. It counts as functional, cell-based. The settings on record: HCC1954, 72 h. A general note: Tetrazolium dyes change colour on reduction, which living cells bring about.
Series [21] addresses T2, von Hippel-Lindau disease tumor suppressor/Hepatocyte growth factor receptor. Description: PROTAC activity at VHL/c-MET (unknown origin). In kind it is protein.
The test system of series [22] is MKN-45. The series is described as follows: Downregulation of prothymosin-alpha protein abundance in human MKN-45 cells by MS-based quantitative proteomics analysis. In kind it is functional, cell-based.
The test system of series [23] is MKN-45. Description: Downregulation of HMGCS1 protein level in human MKN-45 cells by MS-based quantitative proteomics analysis. In kind it is functional, cell-based.

Calls of active or inactive are those of the source. The rule behind the calls is not given here.

For `CN1C(=O)CCC(N2C(=O)c3ccc(N4CCN(CC5CCN(C(=O)c6ccc(-c7cnc8ncc(Cc9ccc%10ncccc%10c9)n8n7)cc6F)CC5)CC4)cc3C2=O)C1=O` (centres undefined), the IC50 (as a rule, the concentration needed to halve the response being measured) with MKN-45 [1] was found to be 0.0735 µM. Also, the outcome in series [2] was inactive.

Take `CNC(=O)c1ccc(-c2cnc3ncc(Cc4ccc5ncccc5c4)n3n2)cc1F` [CAPMATINIB]: the Activity in the series on MKN-45 [3] is 112%; in [4] it was “Non-toxic”; in series [5], “Non-toxic”; in [6] it was “Non-toxic”; in series [7], “Non-toxic”; in series [8] it was “Non-toxic”. For the same compound, the Activity entry in series [9] is “Non-toxic”. For the same compound, in series [10], the AUC(0-inf) (as a rule, total exposure, with the tail of the curve extrapolated) stood at 10400 ng·h/mL. For the same compound, the highest level in series [11] (Cmax) was 3820 ng/mL. Moreover, the half-life – broadly, the time in which the quantity being followed falls by half – in [12] was 4.09 h. Moreover, the Tmax (usually the time at which the peak concentration occurs) in series [13] was determined as 0.5 h.

For the compound `Cc1ncsc1-c1ccc([C@H](C)NC(=O)[C@@H]2C[C@@H](O)CN2C(=O)[C@@H](NC(=O)CCCCCCCCC(=O)N2CCC(n3cc(-c4cnc(N)c(O[C@H](C)c5c(Cl)ccc(F)c5Cl)c4)cn3)CC2)C(C)(C)C)cc1`, the half-maximal inhibitory concentration (IC50) in the series on MKN-45 [1] came out at 0.0707 µM. For the same compound, the Activity in series [14] was 64%. Besides, the result (in the series with MKN-45 [15]; in the series on MKN-45 [16]; in the series on MKN-45 [17]; in series [18]; in series [19]) was Active.

In the case of `C[C@@H](Oc1cc(-c2cnn(C3CCN(C(=O)CCCCCCCOc4cccc5c4C(=O)N(C4CCC(=O)NC4=O)C5=O)CC3)c2)cnc1N)c1c(Cl)ccc(F)c1Cl` (some centres undefined), the DC50 in series [20] is greater than 0.1 µM. The same compound had an IC50 in the series with MKN-45 [1] of 0.347 µM.

As for `COc1cc2c(Oc3ccc(NC(=O)C4(C(=O)Nc5ccc(F)cc5)CC4)cc3)ccnc2cc1OCCCOCCCOCCC(=O)N[C@H](C(=O)N1C[C@H](O)C[C@H]1C(=O)NCc1ccc(-c2scnc2C)cc1)C(C)(C)C`, in the series with HCC1954, the half-inhibitory concentration (IC50) amounted to 6.7 µM. In addition, the DC50 in [21] is greater than 1.11 µM.

Consider `Cc1ncsc1-c1ccc([C@H](C)NC(=O)[C@@H]2C[C@@H](O)CN2C(=O)[C@@H](NC(=O)CCCCCCCCC(=O)N2CCC(COc3cnc(-c4cccc(Cn5nc(-c6cccc(C#N)c6)ccc5=O)c4)nc3)CC2)C(C)(C)C)cc1`, for which the IC50 in the series on MKN-45 [1] was 0.102 µM. The Activity in series [14] stood at 50%. For the same compound, the outcome in the series on MKN-45 [22], in the series on MKN-45 [23] and in the series on MKN-45 [17] was Active.
